Measurements from ChEMBL document CHEMBL1201862, “PubChem BioAssay data set” (2004).
Counter-ions that a name gives are not always drawn. Active and inactive are the calls of the source.

What was measured:
Paired box protein Pax-8 = Paired box protein Pax-8 (Homo sapiens, UniProt Q06710); test: inhibitors of PAX8-driven TPO luciferase reporter, dose response, RMG-I cells, cherry-pick (AID 687027); assay type: functional, cell-based;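 also: luciferase reporter driven by Pax8 target thyroperoxidase promoter measured by SteadyGlo luminescence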
Paired box protein Pax-8, sequence (Q06710 whole entry): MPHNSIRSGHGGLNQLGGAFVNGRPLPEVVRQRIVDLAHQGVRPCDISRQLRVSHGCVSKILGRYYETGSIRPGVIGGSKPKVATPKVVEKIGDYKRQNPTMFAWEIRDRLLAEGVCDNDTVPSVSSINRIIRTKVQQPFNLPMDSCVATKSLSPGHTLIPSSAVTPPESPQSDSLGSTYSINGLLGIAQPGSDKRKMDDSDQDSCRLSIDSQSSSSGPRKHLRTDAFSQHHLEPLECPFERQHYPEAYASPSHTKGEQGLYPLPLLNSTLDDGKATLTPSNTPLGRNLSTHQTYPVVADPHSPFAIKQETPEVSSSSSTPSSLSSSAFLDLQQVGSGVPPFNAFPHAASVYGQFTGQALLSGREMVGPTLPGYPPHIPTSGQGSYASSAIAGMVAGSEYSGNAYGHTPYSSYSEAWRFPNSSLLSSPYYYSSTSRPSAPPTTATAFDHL

[1] = A2780 ovarian cancer cell cytotoxicity, dose response, cytotoxicity control, plate reader, dry powder samples (AID 743046); assay type: functional, cell-based
[2] = cytotoxicity in OVCAR8 ovarian cancer cells, dose response, PAX8 project, cell-based, plate reader, dry powder samples (AID 743197); assay type: functional; conditions: OVCAR-8
[3] = Late stage assay provider results from the probe development effort to identify inhibitors of the Plasmodium falciparum M18 Aspartyl Aminopeptidase (M18AAP): radiolabel-based cell-based dose response assay to identify compounds that inhibit P. falciparum growth in RBCs, Set 2..; assay type: functional
[4] = A549 cell cytotoxicity, dose response, cytotoxicity control, 24 h, CellTiter-Glo luminescence, cherry-picks (AID 1053115); assay type: functional, cell-based; conditions: A549, 24 h
[5] = inhibitors of non-replicating M. tuberculosis, dose response, luciferase, dry powder (AID 651619); assay type: functional; conditions: Mycobacterium tuberculosis
[6] = cytotoxicity in HepG2 cells, dose response, cytotoxicity control, cell-based, plate reader, dry powder (AID 651947); assay type: functional
[7] = inhibitors of non-replicating M. tuberculosis, dose response, luciferase, dry powder (AID 651620); assay type: functional; conditions: Mycobacterium tuberculosis
NS3 = NS3 (Hepatitis C virus, UniProt A3EZJ3); test: HCV NS3 helicase inhibitor potency, dose response, biochemical, fluorescence polarization, ChemBridge library (AID 743264)
NS3, sequence (A3EZJ3 whole entry): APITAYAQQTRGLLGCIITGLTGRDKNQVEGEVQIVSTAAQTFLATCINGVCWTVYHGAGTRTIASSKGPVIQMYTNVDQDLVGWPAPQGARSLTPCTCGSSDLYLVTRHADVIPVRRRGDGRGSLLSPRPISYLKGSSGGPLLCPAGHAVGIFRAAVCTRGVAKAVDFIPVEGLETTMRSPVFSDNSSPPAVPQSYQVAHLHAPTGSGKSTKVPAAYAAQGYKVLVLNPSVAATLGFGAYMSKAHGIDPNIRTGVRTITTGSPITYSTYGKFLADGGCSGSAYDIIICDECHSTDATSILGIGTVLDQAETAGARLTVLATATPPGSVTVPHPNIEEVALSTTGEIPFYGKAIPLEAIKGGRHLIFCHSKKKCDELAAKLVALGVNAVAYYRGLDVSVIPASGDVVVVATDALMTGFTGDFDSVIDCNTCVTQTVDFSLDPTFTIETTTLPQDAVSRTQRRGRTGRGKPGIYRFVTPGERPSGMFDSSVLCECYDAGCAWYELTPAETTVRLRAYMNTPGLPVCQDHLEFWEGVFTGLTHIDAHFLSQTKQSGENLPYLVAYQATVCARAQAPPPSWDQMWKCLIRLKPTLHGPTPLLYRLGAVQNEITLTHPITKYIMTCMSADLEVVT

[8] = HepG2 cell cytotoxicity, dose response, cytotoxicity control, cherry-picks, set 5 (AID 1053118); assay type: functional, cell-based
[9] = HEK293 cell cytotoxicity, dose response, cytotoxicity control, cherry-picks, set 5 (AID 1053117); assay type: functional, cell-based
[10] = target: Metabotropic glutamate receptor 7 (Homo sapiens, UniProt Q14831); test: mGlu7 positive allosteric modulators, dose response, cell-based, calcium mobilization, Galpha15 (AID 743384); assay type: functional
Metabotropic glutamate receptor 7, sequence (Q14831 whole entry): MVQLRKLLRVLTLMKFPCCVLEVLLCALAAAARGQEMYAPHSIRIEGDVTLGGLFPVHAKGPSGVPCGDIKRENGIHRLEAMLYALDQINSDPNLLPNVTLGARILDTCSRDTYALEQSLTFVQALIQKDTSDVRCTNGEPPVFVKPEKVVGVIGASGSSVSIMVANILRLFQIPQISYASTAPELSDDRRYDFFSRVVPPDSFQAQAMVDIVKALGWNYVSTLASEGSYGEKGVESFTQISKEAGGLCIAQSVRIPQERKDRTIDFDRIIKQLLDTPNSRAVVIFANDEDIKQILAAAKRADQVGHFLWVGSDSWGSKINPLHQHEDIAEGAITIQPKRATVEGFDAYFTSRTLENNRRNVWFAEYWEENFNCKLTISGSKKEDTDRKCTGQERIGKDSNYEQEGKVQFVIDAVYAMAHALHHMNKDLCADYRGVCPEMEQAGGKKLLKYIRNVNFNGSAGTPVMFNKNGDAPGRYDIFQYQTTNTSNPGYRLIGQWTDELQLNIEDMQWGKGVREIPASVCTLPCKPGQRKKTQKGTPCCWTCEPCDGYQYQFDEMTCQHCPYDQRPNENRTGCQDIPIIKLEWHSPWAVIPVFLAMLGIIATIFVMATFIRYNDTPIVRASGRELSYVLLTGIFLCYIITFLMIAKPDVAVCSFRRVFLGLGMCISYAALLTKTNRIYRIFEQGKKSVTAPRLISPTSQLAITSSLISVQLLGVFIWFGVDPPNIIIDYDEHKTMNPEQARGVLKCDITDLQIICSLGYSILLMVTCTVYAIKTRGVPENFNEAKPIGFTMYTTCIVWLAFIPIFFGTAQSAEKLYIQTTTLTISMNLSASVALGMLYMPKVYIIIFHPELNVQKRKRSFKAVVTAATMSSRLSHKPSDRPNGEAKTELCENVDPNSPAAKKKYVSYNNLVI

[11] = A375 melanoma cell viability loss, dose response, counter-screen for MITF inhibitor project, CellTiter-Glo luminescence, dry powder, set 4 (AID 624364); assay type: functional, cell-based; conditions: A-375;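 also: A375 melanoma cells are MITF independent so this is a counter screen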
[12] = A375 melanoma cell cytotoxicity, dose response, counter-screen for MITF inhibitor project, CellTiter-Glo luminescence, dry powder, set 2 (AID 624489); assay type: functional, cell-based; conditions: A-375;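 also: actives are compounds lowering A375 viability meaning general cytotoxicity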
[13] = HeLa 2N DNA content increase, dose response, cell-based, IC50 (AID 1117349); assay type: functional
[14] = Concentration-dependent survival of SW480 colon cancer line, luminescence detection with CellTiter-Glo, half-maximal inhibitory concentration (AID 1117338); assay type: functional
[15] = RKO cell viability reduction, dose response, CellTiter-Glo luminescence (AID 1117322); assay type: functional
[16] = cytotoxicity toward HCT116 cells – cell-based, CellTiter-Glo luminescence, IC50, dose response (AID 1117332); assay type: functional; conditions: HCT-116
[17] = SNU-C1 cell viability reduction, dose response, CellTiter-Glo luminescence (AID 1117323); assay type: functional, cell-based
[18] = cytotoxicity toward Colo320 cells – cell-based, CellTiter-Glo luminescence, IC50, dose response (AID 1117334); assay type: functional; conditions: COLO 320
[19] = HeLa 4N DNA content increase, dose response, cell-based, IC50 (AID 1117351); assay type: functional
[20] = cytotoxicity toward HT-29 cells – cell-based, CellTiter-Glo luminescence, IC50, dose response (AID 1117330); assay type: functional
[21] = CellTiter-Glo luminescent dose response of DLD-1 viability loss (AID 1117352); assay type: functional
[22] = HCT116 cell viability decrease, GSK3B pretreatment – CellTiter-Glo, IC50, dose response (AID 1117339); assay type: functional; conditions: HCT-116
[23] = Dose-response inhibition of insulin secretion in a rat insulinoma line at 5 mM glucose (AID 1117331); assay type: functional, cell-based; conditions: INS-1E
cells = assay type: functional, cell-based; conditions: INS-1E

Cc1ccc(S(=O)(=O)Nc2ccc3c(c2)C(=O)N([C@H](C)CO)C[C@@H](C)[C@H](CN(C)S(=O)(=O)c2ccccc2)OCCCC[C@H](C)O3)cc1
AC50 (Paired box protein Pax-8): 8.05 µM (active) | AC50 [1]: 29.5 µM (active) | AC50 [2]: > 70 µM (inactive)

Oc1ccc(CCNC(c2ccccc2)c2ccccc2)cc1O
IC50 [3]: 17 µM (inactive)

C[C@@H]1CCCCO[C@@H](CN(C)S(=O)(=O)c2ccc(Cl)cc2)[C@@H](C)CN([C@@H](C)CO)C(=O)c2cc(NC(=O)Nc3ccc(F)cc3)ccc2O1
AC50 [4]: 51.4 µM (active)

Fc1ccc(Cn2cc(CSc3nnc(-c4ccc(F)cc4)o3)nn2)cc1
IC90 [5]: 1 µM (active) | AC50 [6]: 30.8 µM (active) | IC90 [7]: 1 µM (active)

Cc1c(C(=O)O)cccc1-n1c(C)ccc1C
IC50 (NS3): 34.5 µM (inactive)

CO[C@@H]1CN(C)C(=O)c2cc(NC(=O)Nc3cc(Cl)cc(Cl)c3)ccc2OC[C@@H](C)NC[C@@H]1C
AC50 [8]: 23.8 µM (active) | AC50 [9]: 36.7 µM (active)

CC(=O)Nc1ccc(SCC(=O)c2cc(C)n(-c3nc(C)cs3)c2C)cc1
EC50 [10]: 10 µM (active)

COc1ccc(C(=O)NC2=C(c3ccc(OC)cc3)C(=O)c3ccccc3C2=O)cc1
AC50 [11]: 20.1 µM (active) | AC50 [12]: 13.3 µM (active)

CCCCC(CC)CNC(=N)NC(=N)NCCCCCCNC(=N)NC(=N)NCC(CC)CCCC (stereo unspecified) [ALEXIDINE DIHYDROCHLORIDE]
IC50 [13]: > 10 µM (inactive) | IC50 [14]: 333 nM (active) | IC50 [15]: 223 nM (active) | IC50 [16]: 710 nM (active) | IC50 [17]: 94.1 nM (active) | IC50 [18]: 4.1 nM (active) | IC50 [19]: > 10 µM (inactive) | IC50 [20]: 30.2 nM (active) | IC50 [21]: 19.7 nM (active) | IC50 [22]: 396 nM (active)

CC(C)[C@H]1CC[C@H](C(=O)N[C@H](Cc2ccccc2)C(=O)O)CC1 [NATEGLINIDE]
IC50 [23]: 7.07 µM (inactive) | IC50 (cells): > 33.3 µM (inactive)
